pEC50: −log10 of the molar value. In brackets after ≈: the same amount, converted by molar mass. Read-outs that look alike come from different tables or passages of the source.
Assays:
NOD2 = target: T1, NOD2 (Homo sapiens, UniProt Q9HC29); assay: NF-κB transcriptional activity (SEAP reporter) in HEK-Blue NOD2 cells; type: cell-based; conditions: 18 h; for pEC50: eight concentrations 1 nM to 10 μM, NA, not active
T1 construct: host or cells: HEK-Blue NOD2 (HEK293-derived)
Source text: (§1) HEK-Blue NOD1 (Cat. code: hkb-hnod1), NOD2 (Cat. code: hkb-hnod2), and TLR7 (Cat. code: hkb-htlr7) cell lines (Invivogen, San Diego, CA) are derived from HEK293 cells by co-transfection of the hNOD1, hNOD2, or hTLR7 genes, respectively, and a nuclear factor-κB (NF-κB)-inducible secreted embryonic alkaline phosphatase (SEAP) reporter gene. Following activation of the respective receptors, the resulting NF-κB induces the production of SEAP, the levels of which can be quantified colorimetrically. […] All of the subsequent passages were cultured in medium additionally supplemented with 100 μg/mL Zeocin (Invivogen) and 30 μg/mL Blasticidin (Invivogen) for HEK-Blue NOD1 and NOD2 cells, or with 100 μg/mL Zeocin (Invivogen) and 10 μg/mL Blasticidin (Invivogen) for HEK-Blue TLR7 cells.
(§2) After 18 h of incubation (37 °C, 5% CO2), SEAP activity was determined spectrophotometrically as absorbance at 630 nm (BioTek Synergy microplate reader; Winooski, VT). EC50 values were calculated using the Prism software (version 9; GraphPad Software, CA).

TLR7 = target: T2, TLR7 (Homo sapiens, UniProt Q9NYK1); assay: NF-κB transcriptional activity (SEAP reporter) in HEK-Blue TLR7 cells; type: cell-based; conditions: for pEC50: HEK-Blue TLR7 cells, 18 h, eight concentrations 1 nM to 10 μM, NA, not active; for fold improved TLR7 activity over 1: ratio of EC50 values in HEK-Blue TLR7 cells
T2 construct: host or cells: HEK-Blue TLR7 (HEK293-derived)
T2 sequence (Q9NYK1 27-1049): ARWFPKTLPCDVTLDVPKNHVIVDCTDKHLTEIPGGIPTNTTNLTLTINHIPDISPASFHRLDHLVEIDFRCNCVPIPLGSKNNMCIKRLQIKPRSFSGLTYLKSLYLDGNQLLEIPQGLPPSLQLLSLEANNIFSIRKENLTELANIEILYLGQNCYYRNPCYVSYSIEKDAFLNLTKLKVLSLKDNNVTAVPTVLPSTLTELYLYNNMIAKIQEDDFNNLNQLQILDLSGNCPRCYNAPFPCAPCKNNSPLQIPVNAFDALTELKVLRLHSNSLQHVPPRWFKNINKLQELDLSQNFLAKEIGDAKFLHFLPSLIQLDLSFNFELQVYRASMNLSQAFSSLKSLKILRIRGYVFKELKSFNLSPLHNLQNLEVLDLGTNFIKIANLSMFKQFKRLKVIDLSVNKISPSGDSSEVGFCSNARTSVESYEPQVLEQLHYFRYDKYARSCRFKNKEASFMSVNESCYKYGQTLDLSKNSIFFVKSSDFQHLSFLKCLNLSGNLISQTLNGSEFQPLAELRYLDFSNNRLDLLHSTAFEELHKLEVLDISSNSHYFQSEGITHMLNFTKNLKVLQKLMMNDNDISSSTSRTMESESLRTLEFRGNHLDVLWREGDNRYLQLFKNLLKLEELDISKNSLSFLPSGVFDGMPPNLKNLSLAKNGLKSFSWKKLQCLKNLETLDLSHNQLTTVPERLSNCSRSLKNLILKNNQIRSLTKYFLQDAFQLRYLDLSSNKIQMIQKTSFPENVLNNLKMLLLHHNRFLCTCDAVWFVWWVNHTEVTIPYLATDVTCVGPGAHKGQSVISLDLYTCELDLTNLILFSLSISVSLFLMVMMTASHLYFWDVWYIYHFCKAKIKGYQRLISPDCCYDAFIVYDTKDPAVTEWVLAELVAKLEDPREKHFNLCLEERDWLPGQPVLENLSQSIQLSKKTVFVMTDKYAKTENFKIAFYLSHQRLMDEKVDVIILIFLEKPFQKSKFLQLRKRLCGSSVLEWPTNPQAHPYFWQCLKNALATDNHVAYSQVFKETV
Source text: as §1, §2

RAW-Blue cells = assay: NF-κB transcriptional activity in RAW-Blue cells with or without NOD2/TLR7 antagonists; type: cell-based, murine; conditions: 1 μM, 18 h; SG84 (5 μM), M5049 (1 μM)
Protocol: After the first two passages, 200 μg/mL Zeocin (Invivogen) was added to the medium every other passage, to maintain the selection pressure.
RAW-Blue cells were seeded (100,000 cells/well) in duplicate in 96-well plates in 200 μL of growth medium (without Normocin and Zeocin) and pretreated with a NOD2 antagonist SG84 (5 μM),[35] TLR7 antagonist M5049 (1 μM),[36] or both for 1 h, before the addition of compounds (1 μM) or the corresponding vehicle (0.1% DMSO). After 18 h of incubation (37 °C, 5% CO2), 10 μL of the induced supernatant was added to 90 μL of QUANTI-Blue solution (Invivogen). After 2 h of incubation (37 °C), SEAP activity was determined spectrophotometrically as absorbance at 630 nm (BioTek Synergy microplate reader; Winooski, VT). Statistical significance was determined with two-way ANOVA with subsequent Dunnett’s multiple comparisons test.

K562 cells = assay: PBMC cytotoxicity against K562 cancer cells; type: cell-based; conditions: for cytolytic activity of PBMCs against K562 cells: PBMCs stimulated 18 h, 1 μM, 4 h coincubation, effector:target 40:1
Protocol: (§3) K562 cells are a chronic myelogenous leukemia cell line (Cat. code: CCL-243; ATCC, Manassas, VA)[60] and MEC1 cells are a B-chronic lymphocytic leukemia cell line (Cat. code: ACC 497; DSMZ GmbH, Braunschweig, Germany).[61]
(§4) The PBMC cytotoxicity assays using K562 and MEC1 cells were performed as described previously, with some modifications.[64] PBMCs were seeded (4 × 10^5 cells/well) in duplicate in 96-well U-bottom plates and treated with the compounds (1 nM–1 μM) or vehicle (0.1% DMSO) for 18 h. […] Cells that were positive for both CFSE and Sytox blue were defined as dead K562 and MEC1 cells. The gating strategy is described in Figure S4. PBMCs alone and CFSE-labeled cancer cells alone were also treated with the compounds at the same concentrations and stained with Sytox blue to exclude any direct cytotoxicity of the compounds toward the PBMCs and cancer cells. Statistical significance was determined with one-way ANOVA with subsequent Bonferroni’s multiple comparisons test.

MEC1 cells = assay: PBMC cytotoxicity against MEC1 cancer cells; type: cell-based, human; conditions: PBMCs stimulated 18 h, 1 μM; 4 h coincubation, effector:target 40:1
Protocol: as §3, §4

[1] = Kinetic solubility measurement; type: physicochemical; conditions: for solubility at 2 h: phosphate-buffered saline, aqueous buffer, kinetic from dmso stock, kinetic, PBS pH 7.4, 2% DMSO, 2 h room temperature
Protocol: The content of DMSO in all solutions was fixed to 2% by adding the respective amounts of DMSO. The column used was Waters Acquity UPLC BEH C18 (1.7 μm, 2.1 × 50 mm^2). […] The column was thermostated at 40 °C.

human PBMCs [2] = assay: Cytokine release from peripheral blood mononuclear cells; type: cell-based; conditions: 1 μM, 18 h
Protocol: Human PBMCs from healthy and consenting donors were isolated from heparinized blood by density gradient centrifugation using Ficoll-Paque (Pharmacia, Sweden).
Peripheral blood mononuclear cells were seeded (1 × 10^6 cells/mL) in 24-well plates in 500 μL of growth medium and treated with the compounds (1 μM), lipopolysaccharide (LPS; 1 μg/mL), or the corresponding vehicle (0.1% DMSO). Cell-free supernatants were collected after 18 h of incubation (37 °C, 5% CO2) and stored at −80 °C until tested. Cytokine production was determined with BD Cytometric Bead Array human inflammatory cytokines kit (BD Bioscience) on an Attune NxT flow cytometer (Thermo Fisher Scientific, Waltham, MA). Standard curves were generated using recombinant cytokines contained in the kit. The data were analyzed using the FlowJo (Tree Star, Inc., Ashland, OR) and Prism (GraphPad, San Diego, CA) software. Statistical significance was determined with one-way ANOVA with subsequent Bonferroni’s multiple comparisons test.

human PBMCs [3] = type: cell-based
NIH/OlaHsd mice = assay: Mouse immunization with OVA, OVA-specific serum antibodies (ELISA); type: in vivo; conditions: s.c. days 0, 21, 42; OVA 10 μg + compound 50 μg; 7 days after last dose
Protocol: NIH/OlaHsd inbred mice were raised at the Institute of Immunology, Croatia. All mice used were females, from 2.0 to 2.5 months old. During the experimental period, the mice were housed in the Animal Facility of the Institute of Immunology, with food and water provided ad libitum.
Sex-matched NIH/OlaHsd mice (five per group) were immunized subcutaneously into the tail base with OVA (10 μg; Serva, Germany) alone or plus the compounds (50 μg) on days 0, 21, and 42. The injection volume in all of the experimental groups was 0.1 mL per mouse. On the seventh day after the second booster dose, the mice were anesthetized with i.p. application of ketamine/xylazine (25 mg/kg each) prior to blood collection from the axillary plexus. Individual sera from each animal were decomplemented at 56 °C for 35 min and then stored at −20 °C until tested.
The levels of the OVA-specific total IgG, IgG1, and IgG2a in mice sera were determined by ELISA. Briefly, high-binding ELISA plates (Costar) were coated with a 15 μg/mL solution of OVA (Serva, Germany) in carbonate buffer (pH 9.6). Nonspecific antibody binding was blocked by 0.5% w/v bovine serum albumin in PBS-T (0.05% [v/v] Tween 20 in PBS) for 2 h at 37 °C. After washing, five serial dilutions of mice sera and standard preparations were added in duplicates. Plates were incubated overnight at room temperature, washed, and analyzed for OVA-specific IgG levels by incubation with HRP-conjugated goat anti-mouse IgG (2 h at 37 °C; Bio-Rad Laboratories), and then after washing, with 0.6 mg/mL o-phenylenediaminedihydrochloride solution in citrate-phosphate buffer, pH 5.0, with 0.5 μL 30% H2O2/mL for 30 min at room temperature in the dark. The enzymatic reaction was stopped with 12.5% H2SO4, and absorbance at 492 nm was measured using a microplate reader (Thermo Fisher Scientific, Waltham, MA).
For the determination of OVA-specific IgG1 and IgG2a, the plates were incubated with biotin-conjugated rat anti-mouse IgG1 or IgG2a (2 h at 37 °C; PharMingen, Becton Dickinson) and subsequently with streptavidin-peroxidase (Pharmingen) for 2 h at 37 °C. After washing, the substrate solution was added and incubated for 30 min at room temperature in the dark, as described above. The enzymatic reaction was stopped with 12.5% H2SO4 and absorbance at 492 nm was measured using a microplate reader. The relative quantities of antibodies were determined by parallel line assays using appropriate standard preparations of anti-OVA IgG, anti-OVA IgG1, and anti-OVA IgG2a antibodies with voluntarily assigned 20.000 AU/mL, 400.000 AU/mL, and 5000 AU/mL, respectively.[65] Statistical significance was determined with one-way ANOVA with subsequent Dunnett’s multiple comparisons test.

[4] = tested 1 nM-1 μM, cancer cell line not specified (K562 or MEC1, Figure S5)

T1 sequence (Q9HC29 whole entry): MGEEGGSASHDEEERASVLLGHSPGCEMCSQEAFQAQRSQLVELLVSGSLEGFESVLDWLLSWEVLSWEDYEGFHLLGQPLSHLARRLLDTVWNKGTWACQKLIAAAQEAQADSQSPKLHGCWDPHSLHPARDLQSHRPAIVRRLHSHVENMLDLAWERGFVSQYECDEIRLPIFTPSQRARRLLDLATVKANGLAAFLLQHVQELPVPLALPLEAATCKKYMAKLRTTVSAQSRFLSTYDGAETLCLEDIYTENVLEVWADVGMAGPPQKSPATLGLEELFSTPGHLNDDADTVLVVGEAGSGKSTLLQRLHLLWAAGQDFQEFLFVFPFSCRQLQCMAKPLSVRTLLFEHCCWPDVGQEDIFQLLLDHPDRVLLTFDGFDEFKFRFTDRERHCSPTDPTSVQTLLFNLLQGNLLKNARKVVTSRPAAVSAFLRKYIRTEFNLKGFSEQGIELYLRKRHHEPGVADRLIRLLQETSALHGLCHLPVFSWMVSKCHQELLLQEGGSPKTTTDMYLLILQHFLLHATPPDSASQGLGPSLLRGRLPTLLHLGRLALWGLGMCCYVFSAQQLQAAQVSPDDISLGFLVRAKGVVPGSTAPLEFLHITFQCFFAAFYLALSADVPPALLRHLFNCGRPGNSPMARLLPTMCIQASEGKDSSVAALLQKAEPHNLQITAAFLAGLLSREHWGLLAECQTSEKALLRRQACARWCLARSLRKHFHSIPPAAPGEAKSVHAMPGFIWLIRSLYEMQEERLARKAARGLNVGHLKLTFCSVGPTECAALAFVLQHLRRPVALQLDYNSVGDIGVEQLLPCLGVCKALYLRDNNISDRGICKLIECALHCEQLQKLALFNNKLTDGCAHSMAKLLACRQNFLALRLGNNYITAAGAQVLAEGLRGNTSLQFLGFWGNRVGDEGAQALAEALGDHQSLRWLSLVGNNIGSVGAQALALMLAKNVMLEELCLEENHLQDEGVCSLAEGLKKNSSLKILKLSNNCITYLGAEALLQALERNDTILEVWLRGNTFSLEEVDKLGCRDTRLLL

## CCCCOc1nc(N)c2nc(O)n(Cc3ccc(C(=O)NCCCCCC(=O)Oc4ccc(/C=C/C(=O)NCC(=O)N[C@H](C(=O)N[C@H](CCC(=O)OCC)C(=O)OCC)C(C)C)cc4OC)cc3)c2n1 [Compound 3, Diethyl ((E)-3-(4-((6-(4-((6-amino-2-butoxy-8-hydroxy-9H-purin-9-yl)methyl)benzamido)hexanoyl)-oxy)-3-methoxyphenyl)acryloyl)glycyl-L-valyl-D-glutamate]
NOD2
  pEC50: 6.94
TLR7
  pEC50: 6.79
  fold improved TLR7 activity over 1: approximately 2 fold
RAW-Blue cells
  RAW-Blue activity in the presence of NOD2 or TLR7 antagonist: decrease in activity after antagonizing TLR7 was more prominent
K562 cells
  cytolytic activity of PBMCs against K562 cells: significantly enhanced
K562 cells; [4]
  concentration at which significant PBMC cytotoxicity was observed: 1000 nM
MEC1 cells
  cytolytic activity of PBMCs against MEC1 cells: significantly enhanced
[1]
  solubility at 2 h: 27.4 µM (≈ 27.1 µg/mL)

## CCCCOc1nc(N)c2nc(O)n(Cc3ccc(C(=O)NCCOCCNC(=O)CC[C@@H](NC(=O)[C@@H](NC(=O)CNC(=O)/C=C/c4ccc(O)c(OC)c4)C(C)C)C(=O)OCC)cc3)c2n1 [Compound 4, Ethyl N5-(2-(2-(4-((6-amino-2-butoxy-8-hydroxy-9H-purin-9-yl)methyl)benzamido)ethoxy)ethyl)-N2-((E)-3-(4-hydroxy-3-methoxyphenyl)acryloyl)glycyl-L-valyl-D-glutaminate]
NOD2; 10 μM
  NOD2 activation at the highest concentration tested: activated NOD2 only to a minor extent
NOD2
  pEC50: < 5.00
TLR7
  pEC50: 7.44
  fold improved TLR7 activity over 1: 10 fold
Human PBMCs [2]
  IL12p70 secretion: induced secretion of IL12p70
  production of IL-1β, IL-6, IL-8, IL-10 and TNF: considerably stronger effects compared to 3
Human PBMCs [3]; Chemokine signaling pathway (total 182)
  Genes in KEGG pathway, 4-enriched: 40
Human PBMCs [3]; Hematopoietic cell lineage (total 97)
  Genes in KEGG pathway, 4-enriched: 31
Human PBMCs [3]; Influenza A (total 182)
  Genes in KEGG pathway, 4-enriched: 33
Human PBMCs [3]; NF-kappa B signaling pathway (total 107)
  Genes in KEGG pathway, 4-enriched: 25
Human PBMCs [3]; PBMCs, 1 μM, 18 h
  transcription of IFN-γ and both IL-12 subunits (IL12A, IL12B): strongly upregulated
  transcription of IL-17A, IL-17F, IL-22 and IL-26: induced transcription
  transcription of Th2-associated genes (IL-4, IL-5, IL-13, STAT6, GATA3): remained unchanged
Human PBMCs [3]; PBMCs, three donors, 1 μM, 18 h, FDR <0.05, fold-change <0.5
  number of significantly downregulated genes: 877
Human PBMCs [3]; PBMCs, three donors, 1 μM, 18 h, […]
  number of significantly upregulated genes: 962
Human PBMCs [3]; Pathways in cancer (total 395)
  Genes in KEGG pathway, 4-enriched: 56
Human PBMCs [3]; Phagosome (total 168)
  Genes in KEGG pathway, 4-enriched: 33
Human PBMCs [3]; Rheumatoid arthritis (total 99)
  Genes in KEGG pathway, 4-enriched: 25
Human PBMCs [3]; TNF signaling pathway (total 115)
  Genes in KEGG pathway, 4-enriched: 28
Human PBMCs [3]; Transcriptional misregulation in cancer (total 204)
  Genes in KEGG pathway, 4-enriched: 37
K562 cells
  cytolytic activity of PBMCs against K562 cells: significantly enhanced
K562 cells; [4]
  lowest concentration with significant effect on PBMC cytotoxicity: 10 nM
MEC1 cells
  cytolytic activity of PBMCs against MEC1 cells: significantly enhanced
NIH/OlaHsd mice
  IgG2a/IgG1 ratio (Th1/Th2 polarization): trend toward increased IgG2a/IgG1 ratios
  OVA-specific IgG1 titers: increased the titers
  OVA-specific IgG2a titers: increased the titers
  serum OVA-specific IgG titers: significantly higher
[1]; kinetic solubility, Table S2
  fold higher solubility of 4 than 3: approximately 2 fold
[1]
  solubility at 2 h: 58.2 µM (≈ 54.3 µg/mL)

## CCOC(=O)CC[C@@H](NC(=O)[C@@H](NC(=O)CNC(=O)/C=C/c1ccc(O)c(OC)c1)C(C)C)C(=O)OCC [Compound 2, Diethyl ((E)-3-(4-hydroxy-3-methoxyphenyl)acryloyl)glycyl-L-valyl-D-glutamate]
Human PBMCs [2]
  IL-8 production: significant increase

## CCCCOc1nc(N)c2nc(O)n(Cc3ccc(C(=O)O)cc3)c2n1 [Compound 1, 4-((6-Amino-2-butoxy-8-hydroxy-9H-purin-9-yl)methyl)benzoic acid, reference compound]
TLR7
  pEC50: 6.40
